Results taken from PubChem BioAssay AID328 (DTP/NCI, 2004).
Where “and” joins values, the source holds several entries; their conditions need not be identical. Equal entries are not always repeated. Inconclusive results and toxic doses are left out.

Tested on: BDF1 mice, P388 leukemia ip, median survival T/C
Assay: NCI In Vivo Anticancer Drug Screen. Data for tumor model P388 Leukemia (intraperitoneal) in B6D2F1 (BDF1) mice
Details: endpoint: median survival time, higher = longer survival
How it was run: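 Transplantable tumour in mice; compound vs vehicle dosing; survival scored; ratio of treated to control reported.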

[1] = dose: 50.0 mg/kg/injection, schedule: Q01DX009 (ip), vehicle: saline with Tween-80
[2] = dose: 100.0 mg/kg/injection, schedule: Q01DX009 (ip), vehicle: saline with Tween-80
[3] = dose: 6.25 mg/kg/injection, schedule: Q01DX009 (ip), vehicle: saline with Tween-80
[4] = dose: 100.0 mg/kg/injection, schedule: Q04DX003 (ip), vehicle: saline with Tween-80
[5] = dose: 200.0 mg/kg/injection, schedule: Q04DX003 (ip), vehicle: saline with Tween-80
[6] = dose: 200.0 mg/kg/injection, schedule: Q01DX009 (ip), vehicle: saline with Tween-80

O=c1oc2cc(O)ccc2c2c1CCCC2
T/C (dose: 100.0 mg/kg/injection, schedule: Q04DX003 (ip), vehicle: Klucel (hydroxypropylcellulose) (HPC)): 95 % of control | T/C (dose: 200.0 mg/kg/injection, schedule: Q04DX003 (ip), vehicle: Klucel (hydroxypropylcellulose) (HPC)): 95 % of control | T/C (dose: 400.0 mg/kg/injection, schedule: Q04DX003 (ip), vehicle: Klucel (hydroxypropylcellulose) (HPC)): 100 % of control

O=C(OC1C(OC(=O)C(Cl)Cl)C(OC(=O)C(Cl)Cl)C(OC(=O)C(Cl)Cl)C(OC(=O)C(Cl)Cl)C1OC(=O)C(Cl)Cl)C(Cl)Cl (stereo not drawn)
T/C (dose: 37.5 mg/kg/injection, schedule: Q01DX001 (ip), vehicle: saline sonified): 95 % of control | T/C (dose: 75.0 mg/kg/injection, schedule: Q01DX001 (ip), vehicle: saline sonified): 100 % of control | T/C (dose: 150.0 mg/kg/injection, schedule: Q01DX001 (ip), vehicle: saline sonified): 86 % of control

C[N+]1(C)N=C([O-])N(c2ccc([N+](=O)[O-])cc2)C1=O
T/C [1]: 90 % of control | T/C [2]: 99 % of control

O=C(CBr)N1CCC2(CC1)SSC1(CCN(C(=O)CBr)CC1)S2
T/C (dose: 3.12 mg/kg/injection, schedule: Q01DX009 (ip), vehicle: saline with Tween-80): 112 % of control | T/C [3]: 95 % of control and 111 % of control | T/C (dose: 10.0 mg/kg/injection, schedule: Q04DX003 (ip), vehicle: saline with Tween-80): 122 % of control | T/C (dose: 20.0 mg/kg/injection, schedule: Q04DX003 (ip), vehicle: saline with Tween-80): 120 % of control | T/C (dose: 25.0 mg/kg/injection, schedule: Q04DX003 (ip), vehicle: saline with Tween-80): 123 % of control | T/C (dose: 40.0 mg/kg/injection, schedule: Q04DX003 (ip), vehicle: saline with Tween-80): 114 % of control | T/C (dose: 50.0 mg/kg/injection, schedule: Q04DX003 (ip), vehicle: saline with Tween-80): 113 % of control | T/C [2]: 112 % of control | T/C [4]: 118 % of control | T/C [5]: 102 % of control

C=Cn1ccnc1C(O)(c1ccc(Cl)cc1)c1ccc(Cl)cc1
T/C [2]: 116 % of control

O=[N+]([O-])c1cccc(C[n+]2ccccc2C2OCCO2)c1
T/C (dose: 8.75 mg/kg/injection, schedule: Q01DX009 (ip), vehicle: saline): 104 % of control | T/C (dose: 17.5 mg/kg/injection, schedule: Q01DX009 (ip), vehicle: saline): 100 % of control | T/C (dose: 26.25 mg/kg/injection, schedule: Q04DX003 (ip), vehicle: saline): 100 % of control | T/C (dose: 35.0 mg/kg/injection, schedule: Q01DX009 (ip), vehicle: saline): 109 % of control | T/C (dose: 52.5 mg/kg/injection, schedule: Q04DX003 (ip), vehicle: saline): 95 % of control

NC(Cc1cc(Cl)c(O)c(Cl)c1)C(=O)O (stereo not drawn)
T/C (dose: 100.0 mg/kg/injection, schedule: Q01DX009 (ip), vehicle: saline): 94 % of control | T/C (dose: 150.0 mg/kg/injection, schedule: Q01DX009 (ip), vehicle: saline): 97 % of control | T/C (dose: 200.0 mg/kg/injection, schedule: Q01DX009 (ip), vehicle: saline): 105 % of control

Nc1nc2n[nH]nc2c(=O)[nH]1
T/C (dose: 25.0 mg/kg/injection, schedule: Q01DX010 (ip), vehicle: alkali diluted with saline): 118 % of control | T/C (dose: 100.0 mg/kg/injection, schedule: Q01DX010 (ip), vehicle: alkali diluted with saline): 165 % of control | T/C (dose: 200.0 mg/kg/injection, schedule: Q01DX010 (ip), vehicle: alkali diluted with saline): 160 % of control and 163 % of control

NC(=S)/N=C\C(CC(O)C(O)C(O)CO)=N\NC(N)=S (stereo not drawn)
T/C [3]: 88 % of control and 97 % of control and 100 % of control | T/C (dose: 12.5 mg/kg/injection, schedule: Q01DX009 (ip), vehicle: saline with Tween-80): 99 % of control and 100 % of control and 108 % of control | T/C [1]: 97 % of control and 115 % of control

CCC([NH-])=O.CCC([NH-])=O.[Pt+2]
T/C (dose: 100.0 mg/kg/injection, schedule: Q04DX003 (ip), vehicle: water): 101 % of control | T/C (dose: 200.0 mg/kg/injection, schedule: Q04DX003 (ip), vehicle: water): 101 % of control | T/C (dose: 400.0 mg/kg/injection, schedule: Q04DX003 (ip), vehicle: water): 101 % of control

COc1ccc(C=C2C(=O)N(C)C(=O)N(C)C2=O)cc1
T/C (dose: 50.0 mg/kg/injection, schedule: Q01DX009 (ip), vehicle: other): 119 % of control

O=C(O)c1cc(Br)cc(SSc2cc(Br)cc(C(=O)O)c2O)c1O
T/C (dose: 25.0 mg/kg/injection, schedule: Q01DX009 (ip), vehicle: saline with Tween-80): 103 % of control | T/C [1]: 94 % of control | T/C [2]: 106 % of control

O=C1C=C(c2ccccc2)C(O)(c2ccccc2)C1 (stereo not drawn)
T/C [2]: 102 % of control | T/C [6]: 88 % of control

COc1cccc(/C=C(/SC)S(C)=O)c1OC (stereo not drawn)
T/C (dose: 100.0 mg/kg/injection, schedule: Q04DX003 (ip), vehicle: saline): 106 % of control | T/C (dose: 200.0 mg/kg/injection, schedule: Q04DX003 (ip), vehicle: saline): 115 % of control | T/C (dose: 400.0 mg/kg/injection, schedule: Q04DX003 (ip), vehicle: saline): 120 % of control

CNS(=O)(=O)c1ccc2c(c1)nc(SC)n2C
T/C [4]: 100 % of control | T/C [5]: 100 % of control | T/C (dose: 400.0 mg/kg/injection, schedule: Q04DX003 (ip), vehicle: saline with Tween-80): 104 % of control

CCOc1ccc2nnnn2n1
T/C (dose: 62.5 mg/kg/injection, schedule: Q01DX009 (ip), vehicle: saline): 100 % of control | T/C (dose: 250.0 mg/kg/injection, schedule: Q01DX009 (ip), vehicle: saline): 97 % of control

O=C(/C=C/c1ccc(Cl)cc1)c1ccc(Cl)cc1
T/C [2]: 100 % of control | T/C [6]: 90 % of control | T/C (dose: 400.0 mg/kg/injection, schedule: Q01DX009 (ip), vehicle: saline with Tween-80): 90 % of control
